In article PMC11649521 (The Journal of Physiology, 2024) one finds inhibition data, which are given here for one compound.

What all share (test): cell-based
Holding throughout (conditions): read-out: % block at 1 μM PhTx

Test [1] deals with B/α (type-B iGluR/Neto-α; GluRIIB/C/D/E + Neto-α) (Drosophila melanogaster, UniProt Q0KI42+Q7KSB1+Q9VMP3+Q9VPV3).
Test [2] concerns the target B/β (type-B iGluR/Neto-β; GluRIIB/C/D/E + Neto-β) (Drosophila melanogaster, UniProt Q0KI42+Q7KSB1+Q9VMP3+Q9VPV3).
Test [3] has as its target A/β (type-A iGluR/Neto-β; GluRIIA/C/D/E + Neto-β) (Drosophila melanogaster, UniProt Q0KI42+Q7KSB1+Q9VMP4+Q9VPV3).

Chain of A/β (type-A iGluR/Neto-β; GluRIIA/C/D/E + Neto-β) (Q9VMP4 22-907): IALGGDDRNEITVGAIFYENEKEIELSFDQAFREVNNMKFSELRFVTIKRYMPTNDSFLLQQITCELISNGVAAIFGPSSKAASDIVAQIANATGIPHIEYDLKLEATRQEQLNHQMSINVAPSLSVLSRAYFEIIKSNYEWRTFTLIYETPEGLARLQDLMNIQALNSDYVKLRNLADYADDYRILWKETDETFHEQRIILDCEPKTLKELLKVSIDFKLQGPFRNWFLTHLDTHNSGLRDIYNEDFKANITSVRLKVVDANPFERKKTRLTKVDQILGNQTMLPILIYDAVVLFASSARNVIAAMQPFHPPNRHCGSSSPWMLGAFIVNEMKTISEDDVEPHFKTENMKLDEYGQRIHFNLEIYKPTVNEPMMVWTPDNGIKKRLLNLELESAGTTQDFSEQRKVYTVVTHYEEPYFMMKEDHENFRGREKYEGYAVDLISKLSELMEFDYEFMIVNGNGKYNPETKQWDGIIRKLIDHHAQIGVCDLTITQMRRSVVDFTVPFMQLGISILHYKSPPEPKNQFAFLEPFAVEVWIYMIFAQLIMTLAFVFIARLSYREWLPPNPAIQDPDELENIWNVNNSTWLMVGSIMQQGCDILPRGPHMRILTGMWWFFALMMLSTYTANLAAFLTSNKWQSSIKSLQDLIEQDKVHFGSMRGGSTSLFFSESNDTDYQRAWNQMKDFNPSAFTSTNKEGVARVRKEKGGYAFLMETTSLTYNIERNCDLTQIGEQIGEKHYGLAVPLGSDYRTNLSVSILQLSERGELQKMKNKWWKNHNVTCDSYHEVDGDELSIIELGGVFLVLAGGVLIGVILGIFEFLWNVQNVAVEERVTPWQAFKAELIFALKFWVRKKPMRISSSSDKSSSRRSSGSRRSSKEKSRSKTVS
Chain of A/β (type-A iGluR/Neto-β; GluRIIA/C/D/E + Neto-β) (Q9VPV3 23-940): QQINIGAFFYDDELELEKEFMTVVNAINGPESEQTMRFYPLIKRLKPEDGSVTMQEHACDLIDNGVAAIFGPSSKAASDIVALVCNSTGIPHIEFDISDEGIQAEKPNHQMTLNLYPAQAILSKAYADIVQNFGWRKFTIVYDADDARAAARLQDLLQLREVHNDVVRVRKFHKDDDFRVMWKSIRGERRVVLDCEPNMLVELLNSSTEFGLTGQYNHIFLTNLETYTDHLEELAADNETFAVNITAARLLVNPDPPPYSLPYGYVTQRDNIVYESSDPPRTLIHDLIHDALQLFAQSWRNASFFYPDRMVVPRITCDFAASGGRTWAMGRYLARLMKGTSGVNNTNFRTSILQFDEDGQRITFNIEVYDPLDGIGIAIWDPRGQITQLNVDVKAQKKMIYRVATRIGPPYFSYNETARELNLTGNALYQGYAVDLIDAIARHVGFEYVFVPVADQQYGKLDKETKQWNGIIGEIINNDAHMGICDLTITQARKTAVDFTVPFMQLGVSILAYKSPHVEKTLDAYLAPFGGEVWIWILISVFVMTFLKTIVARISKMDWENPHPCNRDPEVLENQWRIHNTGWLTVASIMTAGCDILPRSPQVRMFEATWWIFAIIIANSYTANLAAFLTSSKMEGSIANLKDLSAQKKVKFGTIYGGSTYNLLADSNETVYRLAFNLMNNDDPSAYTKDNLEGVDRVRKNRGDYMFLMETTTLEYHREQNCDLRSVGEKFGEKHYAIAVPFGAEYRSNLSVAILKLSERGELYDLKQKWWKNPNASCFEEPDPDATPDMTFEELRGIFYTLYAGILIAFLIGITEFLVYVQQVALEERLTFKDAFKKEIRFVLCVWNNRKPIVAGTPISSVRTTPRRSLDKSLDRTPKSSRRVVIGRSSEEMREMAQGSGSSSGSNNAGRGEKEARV
Chain of A/β (type-A iGluR/Neto-β; GluRIIA/C/D/E + Neto-β) (Q7KSB1 19-902): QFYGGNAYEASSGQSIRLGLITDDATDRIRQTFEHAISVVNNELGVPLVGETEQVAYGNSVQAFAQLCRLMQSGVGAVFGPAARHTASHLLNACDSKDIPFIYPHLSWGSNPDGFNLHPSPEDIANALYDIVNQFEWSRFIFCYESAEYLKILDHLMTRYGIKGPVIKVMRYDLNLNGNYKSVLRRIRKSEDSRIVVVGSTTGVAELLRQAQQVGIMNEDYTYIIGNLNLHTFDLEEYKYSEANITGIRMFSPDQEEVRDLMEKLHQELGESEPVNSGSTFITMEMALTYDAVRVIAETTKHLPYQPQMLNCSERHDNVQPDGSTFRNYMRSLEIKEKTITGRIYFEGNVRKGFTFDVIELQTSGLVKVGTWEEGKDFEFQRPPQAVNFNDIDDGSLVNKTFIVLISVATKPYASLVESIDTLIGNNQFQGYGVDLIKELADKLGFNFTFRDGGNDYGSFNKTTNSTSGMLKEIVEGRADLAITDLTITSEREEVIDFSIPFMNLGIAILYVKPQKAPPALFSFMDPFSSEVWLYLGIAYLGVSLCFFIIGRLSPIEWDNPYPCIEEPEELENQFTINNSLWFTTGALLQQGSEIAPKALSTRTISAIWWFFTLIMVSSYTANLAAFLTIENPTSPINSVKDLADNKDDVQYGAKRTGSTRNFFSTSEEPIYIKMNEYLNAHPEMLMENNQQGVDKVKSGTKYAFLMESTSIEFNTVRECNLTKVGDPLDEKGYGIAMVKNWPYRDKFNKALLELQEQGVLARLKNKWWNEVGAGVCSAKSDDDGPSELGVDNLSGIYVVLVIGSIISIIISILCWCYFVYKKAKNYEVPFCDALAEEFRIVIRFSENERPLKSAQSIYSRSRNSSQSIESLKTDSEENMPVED
Chain of A/β (type-A iGluR/Neto-β; GluRIIA/C/D/E + Neto-β) (Q0KI42 23-897): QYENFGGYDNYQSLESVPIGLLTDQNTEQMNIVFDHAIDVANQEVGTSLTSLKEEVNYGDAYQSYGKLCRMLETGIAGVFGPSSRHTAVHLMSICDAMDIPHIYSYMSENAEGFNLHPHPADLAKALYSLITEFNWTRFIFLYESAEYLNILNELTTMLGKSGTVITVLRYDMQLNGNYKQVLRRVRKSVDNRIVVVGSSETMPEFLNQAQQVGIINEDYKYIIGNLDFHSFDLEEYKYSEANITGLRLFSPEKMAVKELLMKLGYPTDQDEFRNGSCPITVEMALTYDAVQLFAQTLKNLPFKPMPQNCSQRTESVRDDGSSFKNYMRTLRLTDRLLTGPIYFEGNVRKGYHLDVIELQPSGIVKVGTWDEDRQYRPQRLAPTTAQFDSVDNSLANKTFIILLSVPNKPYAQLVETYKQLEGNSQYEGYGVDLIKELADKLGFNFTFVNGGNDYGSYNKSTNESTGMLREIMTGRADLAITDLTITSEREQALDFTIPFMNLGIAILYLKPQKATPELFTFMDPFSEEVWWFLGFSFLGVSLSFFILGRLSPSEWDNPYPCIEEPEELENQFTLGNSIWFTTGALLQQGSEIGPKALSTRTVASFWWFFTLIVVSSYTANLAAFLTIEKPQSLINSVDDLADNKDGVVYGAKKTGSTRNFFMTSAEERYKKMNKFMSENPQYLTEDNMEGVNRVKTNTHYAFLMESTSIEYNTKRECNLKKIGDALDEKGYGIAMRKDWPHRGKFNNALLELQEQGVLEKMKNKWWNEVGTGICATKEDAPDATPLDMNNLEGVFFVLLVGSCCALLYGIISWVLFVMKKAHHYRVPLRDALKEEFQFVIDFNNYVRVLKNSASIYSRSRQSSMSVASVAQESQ
Chain of A/β (type-A iGluR/Neto-β; GluRIIA/C/D/E + Neto-β) (X2JDL4 127-822 partner limits assumed): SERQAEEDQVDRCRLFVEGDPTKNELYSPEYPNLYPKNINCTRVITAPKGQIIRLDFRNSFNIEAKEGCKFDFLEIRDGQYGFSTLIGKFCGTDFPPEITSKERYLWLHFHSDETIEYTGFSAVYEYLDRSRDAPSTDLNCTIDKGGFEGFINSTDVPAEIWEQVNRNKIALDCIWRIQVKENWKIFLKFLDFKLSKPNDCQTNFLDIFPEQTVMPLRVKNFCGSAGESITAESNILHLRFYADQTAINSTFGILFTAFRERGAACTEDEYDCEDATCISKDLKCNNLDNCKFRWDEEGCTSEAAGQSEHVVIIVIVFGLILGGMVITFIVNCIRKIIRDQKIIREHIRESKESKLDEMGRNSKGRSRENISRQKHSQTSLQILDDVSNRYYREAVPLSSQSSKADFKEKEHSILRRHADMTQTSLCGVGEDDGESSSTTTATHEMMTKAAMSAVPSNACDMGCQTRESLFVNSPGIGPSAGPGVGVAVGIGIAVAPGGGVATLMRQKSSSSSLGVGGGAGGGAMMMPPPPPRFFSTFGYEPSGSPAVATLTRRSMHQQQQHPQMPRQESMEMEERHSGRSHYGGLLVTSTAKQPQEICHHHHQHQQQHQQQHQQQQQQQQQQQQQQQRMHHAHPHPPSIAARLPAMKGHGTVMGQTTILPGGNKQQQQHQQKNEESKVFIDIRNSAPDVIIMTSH

In the case of `CCCC(=O)N[C@@H](Cc1ccc(O)cc1)C(=O)NCCCNCCCCNCCCN` [PhTx, philanthotoxin‐343], the inhibition at 1 µM in test [1] amounted to 83.3 ± 5.07%; in test [2] it was 74.7 ± 1.72%; in test [3] it was 98.8 ± 0.67%.
